# Patent US11166954B2, “Dihydropyrimidine compound and preparation method and use thereof” (SICHUAN KELUN-BIOTECH BIOPHARMACEUTICAL CO., LTD., priority 2016, dated 2021)
# Read-outs that look alike come from different tables or passages of the source.
# Columns and labels:
# [1] = test system: HepG2.2.15 cells; assay: Cytotoxicity detection (CellTiter-Glo); format: cell-based; conditions: 4 days, highest concentration 150 μM
# Experimental: (§1) The test compounds were diluted to 30 mM with DMSO, with 30 mM as the highest concentration, the compounds were subjected to three-fold serial dilution to various concentrations. 0.2 μL of the compounds at various concentrations were added to a 384-well plate, HepG2.2.15 cells having a concentration of 2000 cells per 50 μL were added to each well, and the highest concentration of the test compounds was 150 μM. 1 μL of DMSO was added to corresponding wells for control. The plate was incubated in a 5% CO2 incubator at 37° C. for 4 days; and 50 μL of CellTiter-Glo was added to each well after 4 days. The plate was read for detection, and a half cytotoxic concentration (CC50) was calculated.
# [2] = target: T1, hERG potassium ion channel (Homo sapiens, UniProt Q12809); assay: Predictor hERG Fluorescence Polarization Assay; format: binding; conditions: hERG fluorescence polarization
# T1 construct: purchased
# Excerpt: In cardiac muscle cells, hERG (human Ether-a-go-go Related Gene) coded potassium channel mediates delayed rectifier potassium currents (IKr). IKr inhibition is the most important mechanism of QT interval prolongation caused by a drug.
# Employing the Predictor™ hERG Fluorescence Polarization Assay, the effect of the compounds on a hERG potassium ion channel was detected.
# [3] = test system: hepatitis type B virus (HBV); assay: Inhibition of HBV DNA replication in HepG2.2.15 cells; format: cell-based
# Experimental: The inhibitory effect of the compounds of the present invention on hepatitis type B virus (HBV) was tested. Cytotoxicity and effects on nucleic acid (DNA) replication level of the virus (HBV) of the compounds of the present invention were tested at a virus-cell level.
# HepG2.2.15 cells in the logarithmic growth phase were plated in a 96-well plate at a cell concentration of 40 cells per μL. The cells were incubated in a 5% CO2 incubator at 37° C. for 3 days; and the culture medium was replaced with a new one ([…]) before adding compounds. The concentration of the stock solution of each Example compound is 200 μM.
# [4] = Cytotoxicity detection (CellTiter-Glo); format: cell-based; conditions: human, HepG2.2.15 cells, highest concentration 150 μM
# Experimental: as §1
# [5] = In vivo pharmacokinetics (PK) in rats; conditions: male, SD, rat; for Kp: liver/plasma, 2 mg/kg
# Experimental: (§2) The test compounds were administrated to male SD rats by intravenous (iv) and by gavage (po), respectively, the doses of the iv and po administration were respectively 1 mg/kg and 2 mg/kg, the solvent system for iv administration was 5% DMSO:5% solutol:90% physiological saline, and the solvent system for po administration was 0.5% MC. Blood was collected at multiple time points after iv administration and po administration for the PK study. Plasma samples and liver tissue samples were subjected to protein precipitation, followed by LC-MS/MS analysis. The mass spectrometer was API 5500, and the liquid chromatograph is a Waters ACQUITY I CLASS system; the chromatographic column was an Agela ASB C18 column (2.1 mm×50 mm, 1.9 μm); mobile phase A was water+0.1% formic acid, and phase B was acetonitrile; the flow rate was 0.4 mL/min, and the column temperature was 40° C. The ion source was an ESI source in a positive ion mode, and the scanning manner is multiple reaction monitoring (MRM).
# [6] = In vivo pharmacokinetics (PK) in cynomolgus macaques; parameters: species or system male cynomolgus macaques; conditions: cynomolgus macaque
# Experimental: as §2, with “male cynomolgus macaques” for “male SD rats”, “respectively 0.5” for “respectively 1”, “and 2.5” for “and 2”, “samples” for “samples and liver tissue samples”, “5500,” for “5500, and”, “chromatograph was” for “chromatograph is”
# [7] = test system: hepatitis B virus; assay: Mouse HBV model via tail vein hydrodynamic injection (HDI); format: in vivo, female BALB/c mice
# Experimental: The in vivo inhibitory effect on hepatitis B virus of the compound of the present invention was evaluated by employing a mouse HBV model via tail vein hydrodynamic injection (HDI).
# A suspension of compound 10-227 of the present invention was prepared with a 0.5% MC solution as the solvent. Female BALB/c mice were injected with pAAV2-HBV 1.3mer (type D) plasmid DNA via tail vein hydrodynamic injection, and then divided into the control group, test group 1 and test group 2 (5 mice in each group). Oral gavage administration was initiated one day later. The control group was given the 0.5% MC solution each time. The test groups 1 and 2 each time were given compound 10-227 (in the form of the suspension prepared above) at a dosage of 1 mg/kg and 3 mg/kg, respectively. The administration was continued for 7 days, twice a day, at an administration interval of 10 hours or 14 hours. Mouse plasma was collected at different time points (e.g., 1 day, 3 days, 5 days or 7 days after the HDI), and the HBV DNA levels in the plasma samples were detected by the RT-qPCR method.
# In addition, throughout the entire in vivo test, the weight and body condition of the mice were measured and observed everyday according to an IACUC (Institutional Animal Care and Use Committee) protocol.
# [8] = In vivo pharmacokinetics (PK) in Beagle dogs; parameters: species or system male Beagle dogs; conditions: Beagle dog
# Experimental: as §2, with “male Beagle dogs” for “male SD rats”, “respectively 0.5” for “respectively 1”, “and 2.5” for “and 2”, “samples” for “samples and liver tissue samples”, “chromatograph was” for “chromatograph is”
# [9] = test system: CYP3A4; assay: CYP3A4 induction test (HepG2 C3A/pCYP3A4-Luc, C8 cells, luciferase); format: cell-based; conditions: human, HepG2 C3A/pCYP3A4-Luc, C8 cells; CYP3A4 induction, 72 hours
# Experimental: (§3) A test tube of HepG2 C3A/pCYP3A4-Luc, C8 cells was taken out of a liquid nitrogen tank, the cells were recovered in a sterile water bath at 37° C.; and the test tube was gently shaken until ice completely melted. The recovered cells were transferred to a 15 mL sterile centrifuge tube, and 5-10 mL pre-heated basal cell culture medium at 37° C. was added; the cells were naturally settled for 2 minutes and centrifuged (1000 rpm) for 8 minutes. The supernatant was discarded, and the cells were re-suspended with 10 mL pre-heated cell culture medium. The cell suspension was transferred to a 10 cm cell-culture dish and incubated in a 5% CO2 incubator at 37° C. The original cell culture medium was replaced with a selective cell culture medium after 24 hours. The cells were digested after growing in 80%-90% of the culture dish, and then transferred to a 15 mL sterile centrifuge tube. Centrifugation was performed at 1000 rpm for 8 minutes, and the cells were collected. The supernatant was discarded, and the cells were re-suspended with 3 mL pre-heated complete medium. […] The supernatant was discarded, the cells were re-suspended and counted, and the suspension was diluted to 4×10^5 cells per mL. […] The fluorescence signal was measured on a plate reader. A concentration curve of the tested compounds was plotted by using software Prism 5, and the EC50 values were calculated.
# [10] = test system: CYP450 isoform 3A4; assay: as above; format: cell-based; conditions: at a concentration of 10 μM
# Experimental: as §3
# [11] = HepG2.2.15, HBV DNA replication
# [12] = male, cynomolgus monkey, 0.5 mg/kg, iv, 0.50 mg/kg, plasma
# [13] = male, cynomolgus monkey, 2.5 mg/kg, po, 2.50 mg/kg, plasma
# [14] = male, 0.5 mg/kg, iv, 0.50 mg/kg, plasma
# [15] = male, 2.5 mg/kg, po, 2.50 mg/kg, plasma
# T1 sequence (Q12809 whole entry): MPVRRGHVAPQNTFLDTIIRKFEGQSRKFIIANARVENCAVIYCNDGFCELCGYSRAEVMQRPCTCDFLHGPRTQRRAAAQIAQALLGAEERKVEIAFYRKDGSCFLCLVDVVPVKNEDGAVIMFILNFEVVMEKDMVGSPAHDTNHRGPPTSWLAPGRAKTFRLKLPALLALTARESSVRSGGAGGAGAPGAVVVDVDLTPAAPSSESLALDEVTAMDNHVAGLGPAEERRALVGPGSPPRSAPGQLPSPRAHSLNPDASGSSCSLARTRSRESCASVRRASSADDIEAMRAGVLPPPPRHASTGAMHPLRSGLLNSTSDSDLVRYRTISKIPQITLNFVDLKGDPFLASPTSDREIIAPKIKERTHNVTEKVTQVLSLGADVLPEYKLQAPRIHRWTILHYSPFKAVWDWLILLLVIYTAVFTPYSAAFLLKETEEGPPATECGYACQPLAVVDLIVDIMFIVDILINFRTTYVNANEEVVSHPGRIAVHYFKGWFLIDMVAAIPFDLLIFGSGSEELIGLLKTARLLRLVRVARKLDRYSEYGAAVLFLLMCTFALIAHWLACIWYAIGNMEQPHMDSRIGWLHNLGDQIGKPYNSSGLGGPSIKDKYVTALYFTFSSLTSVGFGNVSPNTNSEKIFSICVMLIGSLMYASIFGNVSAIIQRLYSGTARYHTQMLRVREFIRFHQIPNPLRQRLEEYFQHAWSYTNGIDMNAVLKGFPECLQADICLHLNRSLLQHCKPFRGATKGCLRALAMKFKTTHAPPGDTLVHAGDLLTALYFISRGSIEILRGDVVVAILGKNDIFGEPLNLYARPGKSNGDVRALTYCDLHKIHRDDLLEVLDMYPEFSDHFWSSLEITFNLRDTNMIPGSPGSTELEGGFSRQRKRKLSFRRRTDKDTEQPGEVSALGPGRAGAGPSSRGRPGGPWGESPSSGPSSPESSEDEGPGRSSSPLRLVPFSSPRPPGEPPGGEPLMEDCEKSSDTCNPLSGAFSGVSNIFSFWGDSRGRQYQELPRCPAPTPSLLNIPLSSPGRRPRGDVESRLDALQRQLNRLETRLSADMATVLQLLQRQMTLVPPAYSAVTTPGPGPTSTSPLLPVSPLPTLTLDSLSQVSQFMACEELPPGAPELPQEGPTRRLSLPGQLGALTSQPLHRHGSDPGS
compound,measurement,setting,value
"CCOC(=O)C1=C(CN2CCC(O)C(F)(F)C2)NC(c2nccs2)=N[C@H]1c1ccc(F)cc1Cl (single isomer, unassigned) [Isomer A of Example 4]",CC50,[1],43.9 µM
same,IC50,[2],> 10 µM
same,EC50,[3]; HBV DNA replication,0.0351 µM
"CCOC(=O)C1=C(CN2CCC(OCC(=O)O)C(F)(F)C2)NC(c2nccs2)=NC1c1ccc(F)cc1Cl (stereo not drawn) [10-95 of Example 5, 2-((1-((6-(2-chloro-4-fluorophenyl)-5-(ethoxycarbonyl)-2-(thiazol-2-yl)-3,6-dihydropyrimidin-4-yl)methyl)-3,3-difluoropiperidin-4-yl)oxy)acetic acid]",CC50 at 4 days,[4],131 µM
same,IC50,[2],> 10 µM
same,EC50,[3]; [11],0.314 µM
"CCOC(=O)C1=C(CN2CCO[C@H](/C=C/C(=O)O)C2)NC(c2nccs2)=N[C@H]1c1ccc(F)cc1Cl [10-226 of Example 25, (E)-3-((R)-4-(((R)-6-(2-chloro-4-fluorophenyl)-5-(ethoxycarbonyl)-2-(thiazol-2-yl)-3,6-dihydropyrimidin-4-yl)methyl)morpholin-2-yl)acrylic Acid]",CC50 at 4 days,[4],> 150 µM
same,IC50,[2],> 10 µM
same,EC50,[3]; [11],0.0092 µM
same,bioavailability,"[5]; plasma, po, by gavage, 2.00 mg/kg, read-out: bioavailability (F)",47.6%
same,AUC(0-inf),"[5]; iv, 1.00 mg/kg, plasma",2.4 µg·h/mL
same,Cmax,"[5]; iv, 1.00 mg/kg, plasma",2.89 µg/mL
same,AUC(0-inf),"[5]; po, 2.00 mg/kg, liver",3.03 µg·h/mL
same,Cmax,"[5]; po, 2.00 mg/kg, liver",1.69 µg/mL
same,AUC(0-inf),"[5]; po, 2.00 mg/kg, plasma",2.29 µg·h/mL
same,Cmax,"[5]; po, 2.00 mg/kg, plasma",2.18 µg/mL
"COC(=O)C1=C(CN2CCO[C@H](/C=C/C(=O)O)C2)NC(c2nccs2)=N[C@H]1c1ccc(F)cc1Cl [10-227 of Example 27, (E)-3-((R)-4-(((R)-6-(2-chloro-4-fluorophenyl)-5-(methoxycarbonyl)-2-(thiazol-2-yl)-3,6-dihydropyrimidin-4-yl)methyl)morpholin-2-yl)acrylic Acid]",CC50 at 4 days,[4],> 150 µM
same,amount of exposure in plasma relative to control compound 3,"[6]; by gavage, 2.50 mg/kg",about 21 times
same,blood-drug concentration relative to control compound 3,"[6]; by gavage, 2.50 mg/kg",about 33 times
same,AUC(0-inf),[6]; [12],2.46 µg·h/mL
same,AUC(0-t),[6]; [12],2.44 µg·h/mL
same,Cmax,[6]; [12],1.67 µg/mL
same,AUC(0-inf),[6]; [13],4.57 µg·h/mL
same,AUC(0-t),[6]; [13],4.42 µg·h/mL
same,Cmax,[6]; [13],1.07 µg/mL
same,bioavailability,"[6]; male, cynomolgus monkey, plasma, po, 2.5 mg/kg, by gavage, 2.50 mg/kg, read-out: bioavailability (F)",37.2%
same,HBV DNA level in plasma,"[7]; Test group 1, 1 mg/kg oral gavage twice a day, 1 day after HDI",1.95 ± 0.09 log (HBV DNA copies/μl)
same,HBV DNA level in plasma,"[7]; Test group 1, 1 mg/kg oral gavage twice a day, 3 days after HDI",2.28 ± 0.17 log (HBV DNA copies/μl)
same,HBV DNA level in plasma,"[7]; Test group 1, 1 mg/kg oral gavage twice a day, 5 days after HDI",2.77 ± 0.11 log (HBV DNA copies/μl)
same,HBV DNA level in plasma,"[7]; Test group 1, 1 mg/kg oral gavage twice a day, 7 days after HDI",2.77 ± 0.14 log (HBV DNA copies/μl)
same,HBV DNA level in plasma,"[7]; Test group 2, 3 mg/kg oral gavage twice a day, 1 day after HDI",1.99 ± 0.09 log (HBV DNA copies/μl)
same,HBV DNA level in plasma,"[7]; Test group 2, 3 mg/kg oral gavage twice a day, 3 days after HDI",1.95 ± 0.15 log (HBV DNA copies/μl)
same,HBV DNA level in plasma,"[7]; Test group 2, 3 mg/kg oral gavage twice a day, 5 days after HDI",1.57 ± 0.08 log (HBV DNA copies/μl)
same,HBV DNA level in plasma,"[7]; Test group 2, 3 mg/kg oral gavage twice a day, 7 days after HDI",1.42 ± 0.31 log (HBV DNA copies/μl)
same,variation in body weight,"[7]; mice, during 7 days of administration, 1 and 3 mg/kg",< 10%
same,IC50,[2],> 10 µM
same,EC50,[3]; [11],0.01 µM
same,amount of exposure in plasma relative to control compound 3,"[8]; by gavage, 2.50 mg/kg",about 14 times
same,blood-drug concentration relative to control compound 3,"[8]; by gavage, 2.50 mg/kg",about 6 times
same,AUC(0-inf),[8]; [14],8.75 µg·h/mL
same,AUC(0-t),[8]; [14],8.69 µg·h/mL
same,Cmax,[8]; [14],2.31 µg/mL
same,AUC(0-inf),[8]; [15],33.2 µg·h/mL
same,AUC(0-t),[8]; [15],32.9 µg·h/mL
same,Cmax,[8]; [15],7.2 µg/mL
same,bioavailability,"[8]; male, plasma, po, 2.5 mg/kg, by gavage, 2.50 mg/kg, read-out: bioavailability (F)",75.9%
same,EC50 at 72 h,[9],123 µM
same,inductive effect on CYP450 isoform 3A4 relative to rifampicin,[10],about 29%
"CCOC(=O)C1=C(CN2C[C@@H](/C=C/C(=O)O)CC(F)(F)C2)NC(c2nccs2)=N[C@H]1c1ccc(F)cc1Cl [10-230 of Example 26, (E)-3-((R)-1-(((R)-6-(2-chloro-4-fluorophenyl)-5-(ethoxycarbonyl)-2-(thiazol-2-yl)-3,6-dihydropyrimidin-4-yl)methyl)-5,5-difluoropiperidin-3-yl)acrylic Acid]",CC50 at 4 days,[4],137 µM
same,IC50,[2],> 10 µM
same,EC50,[3]; [11],0.0112 µM
same,Kp,"[5]; po, po, 2.00 mg/kg, AUCINF liver/plasma, read-out: amount of exposure in liver relative to that in plasma",~10
same,Kp,"[5]; po, po, 2.00 mg/kg, Cmax liver/plasma, read-out: blood-drug concentration in liver relative to that in plasma",~10
same,AUC(0-inf),"[5]; po, 2.00 mg/kg, liver",2.34 µg·h/mL
same,Cmax,"[5]; po, 2.00 mg/kg, liver",1.52 µg/mL
same,AUC(0-inf),"[5]; po, 2.00 mg/kg, plasma",0.236 µg·h/mL
same,Cmax,"[5]; po, 2.00 mg/kg, plasma",0.179 µg/mL
